Patent publication US12065443B2, “Compounds and pharmaceutical compositions thereof for the treatment of diseases” (priority 2017, dated 2024)
Like-named read-outs stand apart in the source and are kept apart here.

Columns and labels:
SIK2 = target: T1, SIK2 (Homo sapiens, UniProt Q9H0K1); assay: biochemical; settings: 33P radioactive SIK kinase assay, AMARA peptide, 10 μM ATP
T1 construct: purchased ThermoFisher Scientific PV4792
Summary of the method: (§1)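 AMARA peptide phosphorylation by SIK1–3 is quantified through ^33P uptake from a labeled/unlabeled ATP blend. Staurosporine at 10 μM final defines full inhibition, 1% DMSO the uninhibited signal. Quench uses phosphoric acid; counting follows filter capture.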

SIK3 = target: T2, SIK3 (Homo sapiens, UniProt Q9Y2K2); assay: biochemical
T2 construct: purchased SignalChem S12-11G-100
Summary of the method: as §1

SIK1 = target: T3, SIK1 (Homo sapiens, UniProt P57059); assay: biochemical; settings: 33P radioactive SIK kinase assay, AMARA peptide, 10 μM ATP; read-out: SIK1 IC50
T3 construct: purchased Carna Biosciences 02-131
Summary of the method: as §1

[1] = tested on: LPS-induced TNFα secretion in monocyte-derived macrophages (MdM); assay: MdM assay: LPS-triggered TNFα (ELISA); type: cell-based, human; settings: LPS-triggered TNFα inhibition
Description: This assay evaluates illustrative compounds of the invention for their inhibition of LPS-induced TNFα and LPS triggered IL-10 secretion in monocyte-derived macrophages.
PBMCs are isolated from human blood samples (buffycoats). The buffy coat is aseptically transferred into a 50 mL Falcon tube, and diluted 1/2 in PBS. Falcon tubes are filled with 20 mL Lymphoprep™, on top of which 25 mL of the buffy coat is carefully added, tubes are centrifuged for 35 min at 400 g in temperature controlled centrifuge, without brake, at 25° C. PBMCs are aspirated from the white interface layer between sample and Lymphoprep™. PBMCs are washed five times in PBS.
PBMCs are centrifuged at 300×g for 10 min and resuspended at a density of 1.0E07 cells/80 μL Miltenyi buffer (PBS, pH 7.4, 1% FBS, 2 mM EDTA).
Starting from this point of the protocol all steps are performed on ice. 20 μL of CD14+ micro-beads are added per 1.0E07 cells, the tube is mixed and incubated for 15 min in the fridge at 4° C. Cell suspension volume is adjusted to total volume of 100 mL using Miltenyi buffer, mixed gently and subsequently centrifuged for 10 min at 300× g. Supernantant is discarded and cell pellet is resuspended in 12 mL of Miltenyi buffer.
Four LS columns are placed in the MACS Separator (magnet) from Miltenyi Biotec, and are prewet by rinsing with 3 mL of MACS buffer per column. Three mL of cell suspension is added onto the column (max 1*10^8 of labelled cells/column), and columns are subsequently washed 3 times with 3 mL of Miltenyi buffer.
The columns are removed from the magnets, and 5 mL of Miltenyi buffer are added to the column to flush out the CD14+ fraction by pushing the plunger into the column. The flushed fractions are collected in a fresh 50 mL Falcon and volume is adjusted to 30 mL using Miltenyi buffer, cells are centrifuged for 10 min at 300× g. The obtained cell pellet is resuspended in 10 mL RPMI w/o FBS, and cell density is determined using a hematologic analyser (Sysmex XS-500i).
On day 10, MdMs are triggered and compound is added.
A compound dilution plate is made in 100% DMSO by 3-fold dilution of 10 mM stock solution. An intermediate dilution plate (10× final concentration) is made by diluting the compound dilution plate 50-fold in RPMI medium.
Medium is carefully removed from cell plates using multichannel pipette, and replaced by 80 μL fresh medium. 10 μL of the 10× final concentration compound is added to the cells and incubated for 1 hour at 37° C. before addition of trigger. No trigger conditions/trigger conditions are spiked with equal final DMSO concentrations of 0.2% DMSO. 10 μL of 10×LPS (final conc. 200 ng/mL) solution are added to all wells except for the ‘no trigger wells’ where 10 μL medium is added. Supernatant is collected after 2 h (IL-10 determination) and after 20 h (TNFα determination) of LPS triggering.
The plate is then washed once with PBST (PBS+0.05% Tween20) and once with PBS followed by the addition of 100 μL of blocking buffer (1% Bovine Serum Albumin (BSA)-5% Sucrose) and plates are sealed and incubated for at least 4 h at RT. After washing the plate once with PBST and once with PBS, 40 μL of standard or sample are added (TNFα standard curve is prepared using a 1/2 serial dilution starting from 16000 pg/mL; dilutions are made in dilution buffer (PBS+1% BSA)). Plates are washed twice with PBST, and once with PBS, after which 35 μL of the detection antibody is added (final concentration 0.25 μg/mL diluted in dilution buffer) and plates are incubated for at least 2 h at RT. Plates are washed twice with PBST, and once with PBS, where after 35 μL of Strep-HRP conjugate (0.5 μg/mL final concentration diluted in dilution buffer) is added. Plates are incubated in the dark, at RT for at least 45 min but no longer than 1 hour. Plates are washed twice with PBST, and once with PBS.

T2 sequence (Q9Y2K2 whole entry): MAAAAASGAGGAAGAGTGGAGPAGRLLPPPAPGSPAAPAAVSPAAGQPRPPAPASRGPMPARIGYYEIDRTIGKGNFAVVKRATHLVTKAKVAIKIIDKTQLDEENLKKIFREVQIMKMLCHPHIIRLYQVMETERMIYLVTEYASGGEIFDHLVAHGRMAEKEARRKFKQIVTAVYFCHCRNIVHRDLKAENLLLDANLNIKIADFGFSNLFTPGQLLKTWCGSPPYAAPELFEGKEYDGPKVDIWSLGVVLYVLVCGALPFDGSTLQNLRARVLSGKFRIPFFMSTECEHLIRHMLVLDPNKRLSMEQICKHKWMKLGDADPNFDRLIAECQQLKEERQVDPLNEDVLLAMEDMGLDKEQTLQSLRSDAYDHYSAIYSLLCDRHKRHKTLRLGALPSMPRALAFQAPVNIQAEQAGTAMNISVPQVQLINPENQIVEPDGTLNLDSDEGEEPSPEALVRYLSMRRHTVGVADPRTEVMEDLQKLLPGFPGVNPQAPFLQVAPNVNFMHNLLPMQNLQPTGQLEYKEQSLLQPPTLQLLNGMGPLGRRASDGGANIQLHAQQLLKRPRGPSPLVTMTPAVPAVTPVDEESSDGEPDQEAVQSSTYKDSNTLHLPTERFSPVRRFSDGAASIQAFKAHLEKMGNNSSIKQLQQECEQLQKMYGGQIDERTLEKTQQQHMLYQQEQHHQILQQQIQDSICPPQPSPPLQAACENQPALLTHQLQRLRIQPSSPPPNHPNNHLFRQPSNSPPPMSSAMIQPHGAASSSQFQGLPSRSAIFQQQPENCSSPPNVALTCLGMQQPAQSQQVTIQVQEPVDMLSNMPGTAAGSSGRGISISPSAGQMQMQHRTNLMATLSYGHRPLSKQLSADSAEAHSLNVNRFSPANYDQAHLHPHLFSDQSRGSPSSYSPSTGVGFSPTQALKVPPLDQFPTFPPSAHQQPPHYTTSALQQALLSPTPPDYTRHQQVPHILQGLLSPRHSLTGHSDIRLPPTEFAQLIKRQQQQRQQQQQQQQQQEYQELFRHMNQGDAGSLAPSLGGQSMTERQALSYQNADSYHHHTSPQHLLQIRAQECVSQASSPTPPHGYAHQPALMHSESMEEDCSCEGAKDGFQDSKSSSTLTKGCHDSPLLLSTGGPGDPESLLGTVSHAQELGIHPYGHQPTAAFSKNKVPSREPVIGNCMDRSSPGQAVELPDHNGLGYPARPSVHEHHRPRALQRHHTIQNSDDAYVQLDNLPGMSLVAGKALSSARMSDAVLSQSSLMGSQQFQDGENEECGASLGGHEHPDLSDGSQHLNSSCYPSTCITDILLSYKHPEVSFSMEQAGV
T3 sequence (P57059 whole entry): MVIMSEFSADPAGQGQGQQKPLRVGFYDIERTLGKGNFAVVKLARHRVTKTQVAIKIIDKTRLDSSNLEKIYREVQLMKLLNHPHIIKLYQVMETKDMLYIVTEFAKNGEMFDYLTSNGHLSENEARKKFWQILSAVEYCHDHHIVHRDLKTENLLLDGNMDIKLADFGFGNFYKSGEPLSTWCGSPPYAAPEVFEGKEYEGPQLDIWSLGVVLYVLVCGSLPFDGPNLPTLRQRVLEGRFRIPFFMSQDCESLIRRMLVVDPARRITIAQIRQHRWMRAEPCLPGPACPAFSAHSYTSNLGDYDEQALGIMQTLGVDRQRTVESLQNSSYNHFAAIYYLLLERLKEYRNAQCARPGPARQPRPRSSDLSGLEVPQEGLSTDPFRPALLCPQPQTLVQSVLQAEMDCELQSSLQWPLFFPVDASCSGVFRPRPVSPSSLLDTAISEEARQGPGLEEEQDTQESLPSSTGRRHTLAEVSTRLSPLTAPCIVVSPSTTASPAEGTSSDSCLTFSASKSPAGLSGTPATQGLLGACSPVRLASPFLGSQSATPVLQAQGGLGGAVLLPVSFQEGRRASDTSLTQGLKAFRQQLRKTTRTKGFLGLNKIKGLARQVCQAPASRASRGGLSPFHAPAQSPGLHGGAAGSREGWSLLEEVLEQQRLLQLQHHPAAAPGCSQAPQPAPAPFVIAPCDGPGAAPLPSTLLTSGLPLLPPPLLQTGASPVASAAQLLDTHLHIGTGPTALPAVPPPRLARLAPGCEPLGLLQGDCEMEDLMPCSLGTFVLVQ
T1 sequence (Q9H0K1 whole entry): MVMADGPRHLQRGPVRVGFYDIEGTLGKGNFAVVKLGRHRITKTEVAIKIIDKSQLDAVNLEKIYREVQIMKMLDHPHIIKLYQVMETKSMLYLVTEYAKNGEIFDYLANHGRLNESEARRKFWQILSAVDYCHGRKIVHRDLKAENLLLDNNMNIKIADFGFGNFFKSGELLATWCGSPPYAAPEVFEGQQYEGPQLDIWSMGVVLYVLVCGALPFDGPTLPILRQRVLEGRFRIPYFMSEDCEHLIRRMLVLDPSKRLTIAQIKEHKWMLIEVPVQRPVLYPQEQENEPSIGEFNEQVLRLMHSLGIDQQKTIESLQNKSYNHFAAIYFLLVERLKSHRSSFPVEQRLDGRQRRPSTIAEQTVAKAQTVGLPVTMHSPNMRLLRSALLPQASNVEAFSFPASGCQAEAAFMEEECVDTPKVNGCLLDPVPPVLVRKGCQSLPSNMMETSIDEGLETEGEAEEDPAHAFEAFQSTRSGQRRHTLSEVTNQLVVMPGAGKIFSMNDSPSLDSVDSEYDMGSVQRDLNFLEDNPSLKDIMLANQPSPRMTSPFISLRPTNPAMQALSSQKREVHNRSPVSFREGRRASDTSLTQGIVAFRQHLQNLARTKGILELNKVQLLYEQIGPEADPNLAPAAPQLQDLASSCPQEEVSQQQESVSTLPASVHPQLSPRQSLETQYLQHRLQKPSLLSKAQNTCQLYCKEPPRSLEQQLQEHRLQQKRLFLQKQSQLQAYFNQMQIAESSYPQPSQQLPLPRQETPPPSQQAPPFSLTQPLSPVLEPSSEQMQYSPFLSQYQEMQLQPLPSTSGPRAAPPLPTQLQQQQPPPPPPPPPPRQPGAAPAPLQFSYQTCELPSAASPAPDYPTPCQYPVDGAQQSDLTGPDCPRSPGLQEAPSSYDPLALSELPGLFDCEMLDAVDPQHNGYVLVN

Compound	IC50 (SIK2)	IC50 (SIK3)	IC50 (SIK1)	EC50 ([1]; Homo sapiens, Macrophage)	IC50 (SIK3; 33P radioactive SIK kinase assay, AMARA peptide, 15 μM ATP)	EC50 [1]
CCn1cc(-c2ccc3c(c2)ncn3-c2cc(OC)c(C(=O)NCCC(F)(F)F)c(OC)c2)cn1 [compound 44, 4-[5-(1-ethylpyrazol-4-yl)benzimidazol-1-yl]-2,6-dimethoxy-N-(3,3,3-trifluoropropyl)benzamide]	10 to 100 nM	10 to 100 nM	10 to 100 nM	100 to 1000 nM		
CCn1cc(-c2cnc3c(-c4cc(OC)c(C(=O)NCC(F)F)c(OC)c4)cnn3c2)cn1 [compound 21, N-(2,2-difluoroethyl)-4-[6-(1-ethylpyrazol-4-yl)pyrazolo[1,5-a]pyrimidin-3-yl]-2,6-dimethoxy-benzamide]	0.01 to 10 nM	0.01 to 10 nM	10 to 100 nM	100 to 1000 nM		
COc1cc(-n2cnc3cc(-c4nnc(C)[nH]4)ccc32)cc(OC)c1C(=O)NCC(F)(F)F [Cpd 127, 2,6-dimethoxy-4-[5-(5-methyl-4H-1,2,4-triazol-3-yl)benzimidazol-1-yl]-N-(2,2,2-trifluoroethyl)benzamide]	100 to 500 nM	100 to 500 nM	> 500 nM	> 5000 nM		
COc1cc(-c2cnc3cc(-c4cnn(CCCC(=O)O)c4)ccn23)cc(OC)c1C(=O)NCC(F)(F)F [Cpd 255, 4-[4-[3-[3,5-dimethoxy-4-(2,2,2-trifluoroethyl-carbamoyl)phenyl]imidazo[1,2-a]pyridin-7-yl]pyrazol-1-yl]butanoic acid]	0.01 to 10 nM	0.01 to 10 nM	0.01 to 10 nM	1000 to 5000 nM		
CCNC(=O)c1c(OC)cc(-c2cnc3cc(-c4ccc(C#N)nc4)ccn23)cc1OC(F)F [compound 146, 4-[7-(6-cyano-3-pyridyl)imidazo[1,2-a]pyridin-3-yl]-2-(difluoromethoxy)-N-ethyl-6-methoxy-benzamide]	10 to 100 nM	10 to 100 nM	100 to 500 nM	100 to 1000 nM		
CCNC(=O)c1c(OC)cc(-n2cnc3cc(-c4cccnc4)ccc32)cc1OC [compound 2, N-ethyl-2,6-dimethoxy-4-[5-(3-pyridyl)benzimidazol-1-yl]benzamide]	100 to 500 nM	10 to 100 nM	100 to 500 nM	1000 to 5000 nM		
COc1cc(-n2cnc3cc(-c4cn(C)cn4)ccc32)cc(OC)c1C(=O)NCC(F)(F)F [Cpd 137, 2,6-dimethoxy-4-[5-(1-methylimidazol-4-yl)benzimidazol-1-yl]-N-(2.2,2-trifluoroethyl)benzamide]	0.01 to 10 nM	10 to 100 nM	10 to 100 nM	100 to 1000 nM		
COc1cc(-n2cnc3cc(-c4cnn(C)c4)ccc32)cc(OC)c1C(=O)NC1CC(F)(F)C1 [compound 125, N-(3,3-difluorocyclobutyl)-2,6-dimethoxy-4-[5-(1-methylpyrazol-4-yl)benzimidazol-1-yl]benzamide]	10 to 100 nM	10 to 100 nM	10 to 100 nM	100 to 1000 nM		
COC(=O)C(C)n1cc(-c2ccn3c(-c4cc(OC)c(C(=O)NCC(F)(F)F)c(OC)c4)cnc3c2)cn1 (stereo not shown) [compound 244, methyl 2-[4-[3-[3,5-diinethoxy-4-(2,2,2-trifluoroethyl-carbamoyl)phenyl]imidazo[1,2-a]pyridin-7-yl]pyrazol-1-yl]propanoate]	0.01 to 10 nM		0.01 to 10 nM		0.01 to 10 nM	0.1 to 100 nM

More lines, main results first:

IC50 (SIK2)	IC50 (SIK3)	IC50 (SIK1)	EC50 ([1]; Homo sapiens, Macrophage)	Compound	IC50 (SIK3; 33P radioactive SIK kinase assay, AMARA peptide, 15 μM ATP)	EC50 [1]
0.01 to 10 nM	0.01 to 10 nM	10 to 100 nM	0.1 to 100 nM	COc1cc(-c2cnc3cc(-c4cc(C)no4)ccn23)cc(OC)c1C(=O)NCC(F)(F)F [compound 232, 2,6-dimethoxy-4-[7-(3-methylisoxazol-5-yl)imidazo[1,2-a]pyridin-3-yl]-N-(2,2,2-trifluoroethyl)benzamide]		
0.01 to 10 nM	0.01 to 10 nM	10 to 100 nM	0.1 to 100 nM	COc1cc(-c2cnc3cc(-c4cnn(C)c4)ccn23)cc(NCCO)c1C(=O)NCC(F)(F)F [compound 205, 2-(2-hydroxyethylamino)-6-methoxy-4-[7-(1-methylpyrazol-4-yl)imidazo[1,2-a]pyridin-3-y 1]-N-(2,2,2-trifluoroethyl)benzamide]		
10 to 100 nM	10 to 100 nM	10 to 100 nM	0.1 to 100 nM	COc1cc(-c2cnc3cc(-c4cnn(C)c4)ccn23)cc(OC)c1C(=O)NC(C)C [compound 171, N-isopropyl-2,6-dimethoxy-4-[7-(1-methylpyrazol-4-yl)imidazo[1,2-a]pyridin-3-yl]benzamide]		
10 to 100 nM	10 to 100 nM	10 to 100 nM	100 to 1000 nM	COc1cc(-n2cnc3cc(-c4cnn(C)c4)ccc32)cc(OC)c1C(=O)N[C@@H]1C[C@H]1C(F)F [compound 157]		
10 to 100 nM	0.01 to 10 nM	10 to 100 nM	100 to 1000 nM	COc1cc(-c2cnc3cc(-c4cnn(C)c4)ccn23)cc(OC)c1C(=O)N1CCC(C#N)C1 (stereo not shown) [compound 210, 1-[2,6-dimethoxy-4-[7-(1-methylpyrazol-4-yl)imidazo[1,2-a]pyridin-3-yl]benzoyl]pyrrolidine-3-carbonitrile]		
0.01 to 10 nM	0.01 to 10 nM	0.01 to 10 nM	0.1 to 100 nM	CCNC(=O)c1c(OC)cc(-c2cnc3cc(-c4cnn(C(F)F)c4)ccn23)cc1OC(F)F [compound 151, 2-(difluoromethoxy)-4-[7-[1-(difluoromethyl)pyrazol-4-yl]imidazo[1,2-a]pyridin-3-yl]-N-ethyl-6-methoxy-benzamide]		
10 to 100 nM	10 to 100 nM	10 to 100 nM	1000 to 5000 nM	COc1cc(-n2cnc3cc(-c4cnn(C)c4)ccc32)cc(OC)c1C(=O)N[C@@H]1C[C@H]1CO [compound 156, N-[(1R,2R)-2-(hydroxymethyl)cyclopropyl]-2,6-dimethoxy-4-[5-(1-methylpyrazol-4-yl)benzimidazol-1-yl]benzamide]		
0.01 to 10 nM	0.01 to 10 nM	0.01 to 10 nM	0.1 to 100 nM	CCNC(=O)c1c(OC)cc(-c2cnc3cc(-c4cnn(C5CCN(C(=O)OC(C)(C)C)CC5)c4)ccn23)cc1OC(F)F [compound 147, tert-butyl 4-[4-[3-[3-(difluoromethoxy)-4-(ethylcarbamoyl)-5-methoxy-phenyl]imidazo[1,2-a]pyridin-7-yl]pyrazol-1-yl]piperidine-1-carboxylate]		
0.01 to 10 nM	0.01 to 10 nM	0.01 to 10 nM	0.1 to 100 nM	COc1cc(-c2cnc3cc(-c4ccc(N5CCOCC5)nc4)ccn23)cc(OC)c1C(=O)NCC(F)(F)F [compound 251, 2,6-dimethoxy-4-[7-(6-morpholino-3-pyridyl)imidazo[1,2-a]pyridin-3-yl]-N-(2,2,2-trifluoroethyl)benzamide]		
10 to 100 nM	10 to 100 nM	10 to 100 nM	100 to 1000 nM	C#CC1(O)CN(C(=O)c2c(OC)cc(-n3cnc4cc(-c5cnn(C)c5)ccc43)cc2OC)C1 [compound 221, [2,6-dimethoxy-4-[5-(1-methylpyrazol-4-yl)benzimidazol-1-yl]phenvl]-(3-ethynyl-3-hydroxy-azetidin-1-yl)methanone]		
